30 compounds from US5721234A, “Glutamate receptor antagonists: fused cycloalkylouinoxalinediones” (Warner-Lambert Company, priority 1995, dated 1998) can be followed below.

Counter-ions that a name gives are not always drawn.

One may read the IC50 as the point on the concentration scale where inhibition reaches its midpoint. A higher IC50 goes with a need for much substance.

The target of test [1] is kainate site (non-NMDA receptor). Nature of the test: Kainate site (non-NMDA receptor) binding affinity (London and Coyle).
In test [2] the target is T1, glycine site of the NMDA receptor (Rattus norvegicus, UniProt P35439).
T1 construct: from tissue
Nature of the test: Glycine site of the NMDA receptor binding affinity (Jones et al.).

The next test concerns the target AMPA receptors. Nature of the test: AMPA receptor binding affinity (Honore et al.).
Where [3] appears, read: Table 1, cyclohexyl-fused analogs.
Setting [4] is: Table 2, cyclopentyl-fused analogs.

`O=c1[nH]c2cc(Br)c3c(c2[nH]c1=O)CC(O)CC3` (stereo not shown) [Example 7, 6-bromo-9-hydroxy-1,4,7,8,9,10-hexahydro-benzo[f]quinoxaline-2,3-dione]: the figures for the IC50 (in test [1] (setting [3]); in test [2] (setting [3]); at AMPA receptors (setting [3])) were 3 µM, 1.5 µM and 17 µM, respectively.
For `O=c1[nH]c2cc(Br)c3c(c2[nH]c1=O)CC(OCc1ccccc1)CC3` (stereo not shown) [Example 8, 9-benzyloxy-6-bromo-1,4,7,8,9,10-hexahydro-benzo[f]quinoxaline-2,3-dione], the IC50 is greater than 100 µM in test [1] (setting [3]) and 14 µM on AMPA receptors (setting [3]).
For the compound `O=c1[nH]c2cc(Br)c3c(c2[nH]c1=O)CC(NCc1ccccc1)CC3` (stereo not shown) [Example 19, 9-benzylamino-6-bromo-1,4,7,8,9,10-hexahydro-benzo[f]quinoxaline-2,3-dione], the IC50 in test [1] (setting [3]) is greater than 100 µM; in test [2] (setting [3]), greater than 100 µM; at AMPA receptors (setting [3]), 25 µM.
As for `CC(=O)NC1Cc2cc(Br)c3[nH]c(=O)c(=O)[nH]c3c2C1` (stereo not shown) [Example 28, N-(5-bromo-2,3-dioxo-2,3,4,7,8,9-hexahydro-1H-cyclopenta[f]quinoxalin-8-yl)-acetamide], the IC50 (in test [1] (setting [4]); at AMPA receptors (setting [4])) was greater than 100 µM in each case.
Take `CC(=O)NC1Cc2c([N+](=O)[O-])c(Br)c3[nH]c(=O)c(=O)[nH]c3c2C1` (stereo not shown) [Example 29, N-(5-bromo-6-nitro-2,3-dioxo-2,3,4,7,8,9-hexahydro-1H-cyclopenta[f]quinoxalin-8-yl)acetamide]: the IC50 on AMPA receptors (setting [4]) is 5.1 µM.
As to `CC(=O)NC1Cc2ccc3[nH]c(=O)c(=O)[nH]c3c2C1` (stereo not shown) [Example 30, N-(2,3-dioxo-2,3,4,7,8,9-hexahydro-1H-cyclopenta[f]quinoxalin-8-yl)-acetamide], the IC50 in test [1] (setting [4]) is 87 µM; on AMPA receptors (setting [4]), 25 µM.
For the compound `CC(=O)NC1Cc2c([N+](=O)[O-])cc3[nH]c(=O)c(=O)[nH]c3c2C1` (stereo not shown) [Example 32, N-(6-nitro-2,3-dioxo-2,3,4,7,8,9-hexahydro-1H-cyclopenta[f]quinoxalin-8-yl)-acetamide], the IC50 in test [1] (setting [4]) was found to be 0.9 µM; in test [2] (setting [4]), 1.3 µM; at AMPA receptors (setting [4]), 0.4 µM.
For `O=C(NC1Cc2c([N+](=O)[O-])cc3[nH]c(=O)c(=O)[nH]c3c2C1)C1CCNCC1` (stereo not shown) [Example 35, 4-(6-nitro-2,3-dioxo-2,3,4,7,8,9-hexahydro-1H-cyclopenta[f]quinoxalin-8-ylcarbamoyl)piperidine hydrochloride], the IC50 in test [1] (setting [4]) is 0.28 µM; in test [2] (setting [4]), less than 1 µM; at AMPA receptors (setting [4]), 0.12 µM.
With `NC1Cc2c([N+](=O)[O-])cc3[nH]c(=O)c(=O)[nH]c3c2C1` (stereo not shown) [Example 38, 8-amino-6-nitro-4,7,8,9-tetrahydro-1H-cyclopenta[f]quinoxaline-2,3-dione hydrochloride], the IC50 in test [1] (setting [4]) worked out at 2.1 µM; at AMPA receptors (setting [4]), 2.6 µM.
In test [2] (setting [3]), `O=C(CCc1ccc(O)cc1)NC1CCc2c([N+](=O)[O-])cc3[nH]c(=O)c(=O)[nH]c3c2C1` (stereo not shown) [Example 41, 2-(6-nitro-2,3-dioxo-1,2,3,4,7,8,9,10-octahydrobenzo[f]quinoxaline-9-ylcarbamoyl)ethyl-(4-hydroxy)benzene] had an IC50 greater than 1 µM.
On to `O=C(Nc1ccccc1)NC1CCc2c([N+](=O)[O-])cc3[nH]c(=O)c(=O)[nH]c3c2C1` (stereo not shown) [Example 42, N-phenyl-N'-(6-nitro-2,3-dioxo-1,2,3,4,7,8,9,10-octahydrobenzo[f]quinoxalin-9-yl)urea], for which the IC50 in test [1] (setting [3]) came out at 0.83 µM; in test [2] (setting [3]), 0.18 µM; on AMPA receptors (setting [3]) it was 0.15 µM.
Consider `CNC1CCc2c([N+](=O)[O-])cc3[nH]c(=O)c(=O)[nH]c3c2C1` (stereo not shown) [Example 52, 9-Methylamino-6-nitro-1,4,7,8,9,10-hexahydrobenzo[f]quinoxaline-2,3-dione], for which the 50% inhibitory concentration (IC50) is 2.8 µM in test [1] (setting [3]), greater than 1 µM in test [2] (setting [3]) and 0.79 µM at AMPA receptors (setting [3]).
As for `CN(C(=O)c1ccccc1)C1CCc2c([N+](=O)[O-])cc3[nH]c(=O)c(=O)[nH]c3c2C1` (stereo not shown) [Example 53, N-Methyl-N-(6-nitro-2,3-dioxo-1,2,3,4,7,8,9,10-octahydro-benzo[f]quinoxalin-9-yl)-benzamide], the IC50 worked out at 1.6 µM in test [1] (setting [3]) and 1.1 µM on AMPA receptors (setting [3]).
Take `O=C(NC1Cc2c([N+](=O)[O-])cc3[nH]c(=O)c(=O)[nH]c3c2C1)c1cccs1` (stereo not shown) [Example 54, Thiophene-2-carboxylic acid (6-nitro-2,3-dioxo-2,3,4,7,8,9-hexahydro-1H-cyclopenta[f]quinoxaline-8-yl)-amide]: the IC50 in test [1] (setting [4]) came out at 0.18 µM; in test [2] (setting [4]), 0.3 µM; on AMPA receptors (setting [4]), 0.05 µM.
As for `O=C(NC1Cc2c([N+](=O)[O-])cc3[nH]c(=O)c(=O)[nH]c3c2C1)c1ccccn1` (stereo not shown) [Example 62, Pyridine-2-carboxylic acid (6-nitro-2,3-dioxo-2,3,4,7,8,9-hexahydro-1H-cyclopenta[f]quinoxalin-8-yl)-amide], the figures for the IC50 (in test [1] (setting [4]); in test [2] (setting [4]); at AMPA receptors (setting [4])) were 1.9 µM, greater than 1 µM and 0.56 µM, respectively.
As for `O=C(NC1Cc2c([N+](=O)[O-])cc3[nH]c(=O)c(=O)[nH]c3c2C1)C1CCCN1` (stereo not shown) [Example 64, Pyrrolidine-2-carboxylic acid (6-nitro-2,3-dioxo-2,3,4,7,8,9-hexahydro-1H-cyclopenta[f]quinoxalin-8-yl)-amide], the IC50 was 0.86 µM in test [1] (setting [4]), greater than 1 µM in test [2] (setting [4]) and 0.64 µM at AMPA receptors (setting [4]).
Consider `O=C(NC1Cc2c([N+](=O)[O-])cc3[nH]c(=O)c(=O)[nH]c3c2C1)c1cc2ccccc2s1` (stereo not shown) [Example 65, Benzo[b]thiophene-2-carboxylic acid (6-nitro-2,3,-dioxo-2,3,4,7,8,9-hexahydro-1H-cyclopenta[f]quinoxalin-8-yl)-amide], for which the figures for the IC50 (in test [1] (setting [4]); at AMPA receptors (setting [4])) were 8.1 µM and 1.3 µM, respectively.
For `CN(C(=O)c1cccs1)C1Cc2c([N+](=O)[O-])cc3[nH]c(=O)c(=O)[nH]c3c2C1` (stereo not shown) [Example 67, Thiophene-2-carboxylic acid methyl-(6-nitro-2,3-dioxo-2,3,4,7,8,9-hexahydro-1H-cyclopenta[f]quinoxalin-8-yl)-amide] the same measures were 1.6 µM and 3.6 µM.
With `CN(C(=O)c1ccccc1)C1Cc2c([N+](=O)[O-])cc3[nH]c(=O)c(=O)[nH]c3c2C1` (stereo not shown) [Example 68, N-Methyl-N-(6-nitro-2,3-dioxo-2,3,4,7,8,9-hexahydro-1H-cyclopenta[f]quinoxalin-8-yl)-benzamide], the IC50 in test [1] (setting [4]) was 1.9 µM; on AMPA receptors (setting [4]) it was 7.4 µM.
On to `CN(C(=O)C1Cc2c([N+](=O)[O-])cc3[nH]c(=O)c(=O)[nH]c3c2C1)c1ccccc1` (stereo not shown) [Example 69, 6-Nitro-2,3-dioxo-2,3,4,7,8,9-hexahydro-1H-cyclopenta[f]quinoxaline-8-carboxylic acid methyl-phenyl-amide], for which the IC50 was 1.6 µM in test [1] (setting [4]), greater than 100 µM in test [2] (setting [4]) and 0.42 µM on AMPA receptors (setting [4]).
Consider `O=C(O)C1Cc2c([N+](=O)[O-])cc3[nH]c(=O)c(=O)[nH]c3c2C1` (stereo not shown) [Example 78, 6-Nitro-2,3,-dioxo-2,3,4,7,8,9-hexahydro-1H-cyclopenta[f]quinoxaline-8-carboxylic acid], for which the IC50 in test [1] (setting [4]) is 1.9 µM; in test [2] (setting [4]), 14 µM; on AMPA receptors (setting [4]), 0.42 µM.
Consider `O=C(Nc1ccccc1)C1Cc2c([N+](=O)[O-])cc3[nH]c(=O)c(=O)[nH]c3c2C1` (stereo not shown) [Example 80, 6-Nitro-2,3,-dioxo-2,3,4,7,8,9-hexahydro-1H-cyclopenta[f]quinoxaline-8-carboxylic acid phenylamide], for which the values for the IC50 (in test [1] (setting [4]); at AMPA receptors (setting [4])) were 3.9 µM and 1.6 µM, respectively.
With `O=c1[nH]c2cc([N+](=O)[O-])c3c(c2[nH]c1=O)CC(N1CCCC1)CC3` (stereo not shown) [Example 86, 6-Nitro-9-pyrrolidin-1-yl-1,4,7,8,9,10-hexahydro-benzo[f]quinoxaline-2,3-dione], the IC50 in test [1] (setting [3]) amounted to 3.8 µM; at AMPA receptors (setting [3]) it was 2.2 µM.
`CN(C)C1Cc2c([N+](=O)[O-])cc3[nH]c(=O)c(=O)[nH]c3c2C1` (stereo not shown) [Example 90, 8-Dimethylamino-6-nitro-4,7,8,9-tetrahydro-1H-cyclopenta[f]quinoxaline-2,3-dione]: the figures for the IC50 (in test [1] (setting [4]); in test [2] (setting [4]); on AMPA receptors (setting [4])) were 2.6 µM, 12 µM and 0.91 µM, respectively.
Take `CNC1Cc2c([N+](=O)[O-])cc3[nH]c(=O)c(=O)[nH]c3c2C1` (stereo not shown) [Example 100, 8-Methylamino-6-nitro-4,7,8,9-tetrahydro-1H-cyclopenta[f]quinoxaline-2,3-dione methane sulfonate salt]: the IC50 was 2.2 µM in test [1] (setting [4]) and 1.2 µM at AMPA receptors (setting [4]).
As for `O=C(CN(CCO)CCO)NC1Cc2c([N+](=O)[O-])cc3[nH]c(=O)c(=O)[nH]c3c2C1` (stereo not shown) [Example 101, 2-[Bis-(2-hydroxy-ethyl)-amino]-N-(6-nitro-2,3-dioxo-2,3,4,7,8,9-hexahydro-1H-cyclopenta[f]quinoxalin-8-yl)-acetamide], the results for the IC50 (in test [1] (setting [4]); on AMPA receptors (setting [4])) were 1.4 µM and 1.1 µM, respectively.
For `O=c1[nH]c2cc([N+](=O)[O-])c3c(c2[nH]c1=O)CC(N1CCCC1)C3` (stereo not shown) [Example 104, 6-Nitro-8-pyrrolidin-1-yl-4,7,8,9-tetrahydro-1H-cyclopenta[f]quinoxaline-2,3-dione] the same measures were 2.2 µM and 1.5 µM.
In the same order, the values of `CC(=O)N(C)C1Cc2c([N+](=O)[O-])cc3[nH]c(=O)c(=O)[nH]c3c2C1` (stereo not shown) [Example 105, N-Methyl-N-(6-nitro-2,3,-dioxo-2,3,4,7,8,9-hexahydro-1H-cyclopenta[f]quinoxaline-8-yl)acetamide] are 2.2 µM and 2.2 µM.
For `O=c1[nH]c2cc([N+](=O)[O-])c3c(c2[nH]c1=O)CC(N1CCCCC1)C3` (stereo not shown) [Example 108, 6-Nitro-8-piperidin-1-yl-4,7,8,9-tetrahydro-1H-cyclopenta[f]quinoxaline-2,3-dione] the same measures were 1.6 µM and 3.4 µM.
With `CCN(CC)C1Cc2c([N+](=O)[O-])cc3[nH]c(=O)c(=O)[nH]c3c2C1` (stereo not shown) [Example 109, 8-Diethylamino-6-nitro-4,7,8,9,-tetrahydro-1H-cyclopenta[f]quinoxaline-2,3-dione], the IC50 is 5.4 µM in test [1] (setting [4]) and 5.1 µM on AMPA receptors (setting [4]).
